From US9889115B2, “Fitness assay and associated methods” (priority 1998, dated 2018) come the findings set out here.

Read-outs that look alike come from different tables or passages of the source. Where only a bound is given, the exact number is not on record here.

What all share (assay type): cell-based
Assay [1] deals with multidrug-resistant HIV-1 clinical isolate, patient 10. Description: microbe, parasite or virus in culture. As to conditions: Patient Isolate 10. The protocol:
(§1) The mutant multidrug-resistant HIV-1 strains corresponding to each patient, numbered 9-35, were genetically analyzed in terms of the nucleic acid sequences of the protease (PR) and a portion of the reverse transcriptase (RT) genes from which mutations in these enzymes were determined. The mutations in the protease and reverse transcriptase of the multidrug-resistant viruses isolated from each patient are shown below in Table 9b.

In assay [2] the test system is multidrug-resistant HIV-1 clinical isolate, patient 11. Nature of the assay: microbe, parasite or virus in culture. Conditions: Patient Isolate 11. The method, then:
as §1

Assay [3] has as its system multidrug-resistant HIV-1 clinical isolate, patient 12. Description: microbe, parasite or virus in culture. Conditions: Patient Isolate 12. The protocol: as §1
In assay [4] the test system is multidrug-resistant HIV-1 clinical isolate, patient 13. Description: microbe, parasite or virus in culture. As to conditions: Patient Isolate 13. The method, then: as §1
Assay [5] deals with multidrug-resistant HIV-1 clinical isolate, patient 14. Nature of the assay: microbe, parasite or virus in culture. Conditions: Patient Isolate 14. The method, then:
as §1

Assay [6] deals with multidrug-resistant HIV-1 clinical isolate, patient 15. Nature of the assay: microbe, parasite or virus in culture. As to conditions: Patient Isolate 15. The method, then:
as §1

For assay [7], the system named is multidrug-resistant HIV-1 clinical isolate, patient 16. Description: microbe, parasite or virus in culture. As to conditions: Patient Isolate 16. The protocol:
as §1

Assay [8] has as its system multidrug-resistant HIV-1 clinical isolate, patient 17. Nature of the assay: microbe, parasite or virus in culture. Conditions: Patient Isolate 17. The protocol: as §1
Assay [9] concerns multidrug-resistant HIV-1 clinical isolate, patient 18. Description: microbe, parasite or virus in culture. Conditions: Patient Isolate 18. The method, then:
as §1

Assay [10] deals with multidrug-resistant HIV-1 clinical isolate, patient 19. Description: microbe, parasite or virus in culture. Conditions: Patient Isolate 19. The method, then: as §1
The test system of assay [11] is multidrug-resistant HIV-1 clinical isolate, patient 20. Nature of the assay: microbe, parasite or virus in culture. Conditions: Patient Isolate 20. The method, then:
as §1

Assay [12] has as its system multidrug-resistant HIV-1 clinical isolate, patient 21. Nature of the assay: microbe, parasite or virus in culture. Conditions: Patient Isolate 21. The method, then: as §1
Assay [13] deals with multidrug-resistant HIV-1 clinical isolate, patient 23. Nature of the assay: microbe, parasite or virus in culture. Conditions: Patient Isolate 23. The protocol: as §1
Assay [14] concerns multidrug-resistant HIV-1 clinical isolate, patient 27. Description: microbe, parasite or virus in culture. As to conditions: Patient Isolate 27. The method, then:
as §1

In assay [15] the test system is multidrug-resistant HIV-1 clinical isolate, patient 28. Nature of the assay: microbe, parasite or virus in culture. As to conditions: Patient Isolate 28. The method, then:
as §1

Assay [16] deals with multidrug-resistant HIV-1 clinical isolate, patient 29. Description: microbe, parasite or virus in culture. Conditions: Patient Isolate 29. The protocol:
as §1

The test system of assay [17] is multidrug-resistant HIV-1 clinical isolate, patient 30. Nature of the assay: microbe, parasite or virus in culture. Conditions: Patient Isolate 30. The method, then: as §1
Assay [18] has as its system multidrug-resistant HIV-1 clinical isolate, patient 31. Nature of the assay: microbe, parasite or virus in culture. Conditions: Patient Isolate 31. The method, then: as §1
The subject of assay [19] is multidrug-resistant HIV-1 clinical isolate, patient 32. Description: microbe, parasite or virus in culture. As to conditions: Patient Isolate 32. The protocol:
as §1

Assay [20] has as its system multidrug-resistant HIV-1 clinical isolate, patient 33. Description: microbe, parasite or virus in culture. Conditions: Patient Isolate 33. The method, then: as §1
The test system of assay [21] is multidrug-resistant HIV-1 clinical isolate, patient 35. Nature of the assay: microbe, parasite or virus in culture. As to conditions: Patient Isolate 35. The method, then:
as §1

For assay [22], the system named is multidrug-resistant HIV-1 clinical isolate, patient 9. Nature of the assay: microbe, parasite or virus in culture. Conditions: Patient Isolate 9. The protocol: as §1
In assay [23] the test system is multidrug-resistant HIV-1 clinical isolate, patient 22. Description: IC50 against multidrug-resistant clinical isolates (Table 9a). The protocol: as §1
Assay [24] deals with multidrug-resistant HIV-1 clinical isolate, patient 34. The description is as above. The protocol:
as §1

Another assay concerns wild-type HIV-1 (WT). Nature of the assay: IC50 against wild-type HIV-1 (Table 9a). As to conditions: (WT).
Where [25] appears, read: Patient Isolate 22, read-out: IC50.
Where [26] appears, read: Patient Isolate 34, read-out: IC50.

As usually defined, the IC50 is the concentration that gives 50% inhibition.

For `Cc1c(O)cccc1C(=O)N[C@@H](CSc1ccccc1)[C@H](O)CN1C[C@H]2CCCC[C@H]2C[C@H]1C(=O)NC(C)(C)C` [Nel., Nelfinavir], the half-inhibitory concentration (IC50) in assay [1] (Human immunodeficiency virus 1) was above 1250 nM; in assay [2] (Human immunodeficiency virus 1), 30 nM; in assay [3] (Human immunodeficiency virus 1) it was above 1250 nM; in assay [4] (Human immunodeficiency virus 1) it was 470 nM; in assay [5] (Human immunodeficiency virus 1) it was 10 nM; in assay [6] (Human immunodeficiency virus 1) it was 470 nM. The IC50 in [7] (Human immunodeficiency virus 1) is 860 nM; in assay [8] (Human immunodeficiency virus 1), 520 nM; in [9] (Human immunodeficiency virus 1), 600 nM; in assay [10] (Human immunodeficiency virus 1), 500 nM; in assay [11] (Human immunodeficiency virus 1) it was 580 nM; in [12] (Human immunodeficiency virus 1), above 1250 nM. In addition, the IC50 was 280 nM in assay [13] (Human immunodeficiency virus 1); above 1250 nM in [14] (Human immunodeficiency virus 1); above 1250 nM in [15] (Human immunodeficiency virus 1); 670 nM in [16] (Human immunodeficiency virus 1); 520 nM in assay [17] (Human immunodeficiency virus 1); 240 nM in [18] (Human immunodeficiency virus 1). In addition, the concentration for half-maximal inhibition (IC50) in [19] (Human immunodeficiency virus 1) was found to be 220 nM; in assay [20] (Human immunodeficiency virus 1), 350 nM; in assay [21] (Human immunodeficiency virus 1), 480 nM; in assay [22] (Human immunodeficiency virus 1) it was 980 nM; in assay [23] (Human immunodeficiency virus 1) it was 100 nM; in [24] (Human immunodeficiency virus 1), 260 nM. Moreover, the IC50 with wild-type HIV-1 (WT) (Human immunodeficiency virus 1) amounted to 31 nM.
`Nc1ccn([C@H]2CC[C@@H](CO)O2)c(=O)n1` [DDC, 2′3′-dideoxycytidine] gave an IC50 in the assay on wild-type HIV-1 (WT) of 243 nM.
Turning to `Cc1cn([C@H]2C[C@H](N=[N+]=[N-])[C@@H](CO)O2)c(=O)[nH]c1=O` [AZT, 3′-azido-2′,3′-dideoxythymidine], the IC50 was 20 nM in assay [1]; 110 nM in assay [2]; 70 nM in assay [3]; 170 nM in [4]; 640 nM in [5]; 200 nM in assay [6]. In addition, the IC50 was 970 nM in assay [7]; above 1250 nM in assay [8]; 550 nM in [9]; above 1250 nM in [10]; 1250 nM in [11]; above 1250 nM in assay [12]. The IC50 was 190 nM in assay [13]; 30 nM in [14]; above 1250 nM in assay [15]; above 1250 nM in assay [16]; 160 nM in assay [17]; 320 nM in assay [19]. In addition, the 50% inhibitory concentration (IC50) in [20] turned out to be 510 nM; in assay [21], 880 nM; in [22], 10 nM; in assay [23] (setting [25]) it was 1020 nM; in the assay with wild-type HIV-1 (WT), 22 nM.
In the case of `Cc1cn([C@H]2C=C[C@@H](CO)O2)c(=O)[nH]c1=O` [Compound D4T], the IC50 in assay [1] came out at 1290 nM; in assay [2] it was 3100 nM; in [3], 1230 nM; in [4] it was 780 nM; in assay [5] it was 1100 nM; in assay [6] it was 1100 nM. In addition, the half-inhibitory concentration (IC50) was 1810 nM in assay [7]; 4280 nM in assay [8]; 2080 nM in [9]; 35600 nM in assay [10]; 22500 nM in [11]; 3280 nM in [12]. Also, the half-inhibitory concentration (IC50) in [13] came to 1000 nM; in assay [14], 4000 nM; in assay [15] it was 5440 nM; in [16], 5290 nM; in [17], 2520 nM; in [18], 3110 nM. The half-maximal inhibitory concentration (IC50) in assay [19] turned out to be 2410 nM; in assay [20], 2730 nM; in [21], 18100 nM; in assay [22] it was 910 nM; in [23] (setting [25]) it was 4680 nM; in [24] (setting [26]), 7710 nM. In addition, the IC50 with wild-type HIV-1 (WT) came out at 1060 nM.
As for `Nc1ccn([C@@H]2CS[C@H](CO)O2)c(=O)n1` [Compound 3TC], the IC50 in the assay on wild-type HIV-1 (WT) worked out at 264 nM.
Regarding `O=c1[nH]cnc2c1ncn2[C@H]1CC[C@@H](CO)O1` [DDI, 2′3′-dideoxyinosine], the IC50 turned out to be 1700 nM in assay [1]; 2400 nM in assay [2]; 900 nM in assay [3]; 500 nM in assay [4]; 2400 nM in [5]; 2200 nM in assay [6]. Moreover, the half-inhibitory concentration (IC50) was 3500 nM in assay [7]; 2200 nM in assay [9]; 36600 nM in assay [10]; 7100 nM in [11]; 1000 nM in assay [12]; 1800 nM in assay [13]. The IC50 in assay [14] amounted to 2600 nM; in [15], 2800 nM; in assay [16], 3800 nM; in [17], 2800 nM; in assay [18], 2600 nM; in assay [19] it was 8400 nM. Moreover, the IC50 came out at 2000 nM in assay [20]; 17000 nM in assay [21]; 700 nM in assay [22]; 3700 nM in assay [23] (setting [25]); 9100 nM in [24] (setting [26]); 895 nM in the assay on wild-type HIV-1 (WT).
